The values below come from patent publication US4515793A, “Phenylpiperazines which are useful in the treatment of schistosomiasis” (Edna McConnell Clark Foundation, priority 1983, dated 1985).

The subject of series [1] is Salmonella Typhimurium TA1538. Briefly: bacterial mutagenicity, strain TA1538. It is filed as cell-based. Also on record: key: +: Positive Response; -: Negative Response; w+: Weak Positive Response. Here is the method:
(§1) The tests were carried out as follows:
(§2) Four phenylpiperazine derivatives were selected and specially purified samples were prepared for testing as bacterial mutagens. The tests were conducted with five strains (TA98, TA100, TA1535, TA1537, and TA1538) of Salmonella Typhimurium. The compounds were the base of cpd. A (Table 6a), cpd. 28 (Table 2), cpd. 49 (Table 3), and cpd. 8 (Table 1). Hycanthone was used as a positive control drug. In the initial test, cpd. A base was nonmutagenic, confirming previous work using strains TA98 and TA100 with cpd. A. Cpd. 28 and cpd. […] In this initial test, cpd. […] Therefore, it was concluded that cpd. 49 is nonmutagenic in the Ames/Salmonella assay.

Series [2] relates to S. mansoni. Nature of the series: antischistosomal activity in mice (live worm burden, single oral dose). Particulars: Schistosoma mansoni, single oral dose, read-out: % Reduction Live Worm Burden; for inhibition in vivo at 50 mg/kg: mice (footnote, 40 mg/kg); for inhibition in vivo at 156 mg/kg: mice (footnote, 125 mg/kg column). It is filed as in vivo, S. mansoni (host: CD1 white female mice). Here is the method:
Tests were conducted to determine the antischistosomal activity in mice and monkeys. The results of the mice tests are reported in Tables 1 to 4 along with the chemical identifications of the compounds synthesized and tested.
The mice tests were conducted as follows:
A. Preinfection Procedures: Purina Laboratory chow (Ralston-Purina) and water were given ad libitum. All mice were housed in hanging stainless steel cages, without bedding, five per cage. They were kept in a ward with an ambient temperature of 75° F. and a relative humidity of 50-55%. Therapeutic treatment was given on Day 40 post-infection.
B. Experimental Procedures: CD1 white female mice were exposed by the tail immersion method for 30 minutes to 80 individually counted S. mansoni cercariae (WRAIR laboratory strain). The cercariae were obtained from pools of no less than 25 Biophalaria glabrata snails. Each experiment consisted of 118 mice divided into infected/water treated and infected/vehicle-treated controls, and infected/drug-treated groups (two dose levels) for six compounds. Groups of 12 mice each were treated with a compound synthesized and provided by the Warner-Lambert Company, Ann Arbor, Mich. at two dose levels. At the same time, five mice were sacrificed to establish worm burdens as infection controls. Three weeks after treatment, all remaining mice were sacrificed and perfused. Gross pathology (liver and intestines) was noted and graded (0 to +3). Worm burdens were determined and the sex of the worms recorded. Following perfusions the liver and intestines were removed and examined for the presence of […] or dead worms. […] Drugs were administered orally in Emulphor EL.
C. Drug Treatment: Treatment consisted of a single oral dose. Each drug was give initially at two dose levels, 40 mg/kg and 125 mg/kg, SID×1.
D. Criteria Used to Evaluate Therapeutic Effectiveness:
Evaluation of activity was determined by examination of the animals at 23 to 28 days after treatment. The schistosomes remaining alive after treatment were counted in the perfusates of the hepatic portal system and in press preparation of the livers. In the same preparations, the relative numbers of dead and/or encapsulated (i.e., worms may or may not be dead) parasites and the relative degree of pathology were ascertained. The efficacy of each treatment was that percentage of the control infection represented by the difference between numbers of parasites recovered from control (H2 O+vehicle) and treated animals. Thus, % efficacy is: [formula]

Another series deals with Salmonella Typhimurium. Briefly: bacterial mutagenicity (Ames/Salmonella), five strains together. Particulars: for bacterial mutagenicity: initial test. It is filed as cell-based. The procedure: as §1
Four phenylpiperazine derivatives were selected and specially purified samples were prepared for testing as bacterial mutagens. The tests were conducted with five strains (TA98, TA100, TA1535, TA1537, and TA1538) of Salmonella Typhimurium. The compounds were the base of cpd. A (Table 6a), cpd. 28 (Table 2), cpd. 49 (Table 3), and cpd. 8 (Table 1). Hycanthone was used as a positive control drug.

For series [3], the system named is Salmonella Typhimurium TA1535. Nature of the series: bacterial mutagenicity, strain TA1535. On the set-up: key: +: Positive Response; -: Negative Response; w+: Weak Positive Response. To be noted: without metabolic activation. Type of series: cell-based. Here is the method: as §1, §2
Series [4] relates to Salmonella Typhimurium TA98. Nature of the series: bacterial mutagenicity, strain TA98. Also on record: key to Mutagenicity TA98: +: Positive Response; -: Negative Response; w+: Weak Positive Response. Type of series: cell-based. The procedure:
as §1, §2

Series [5] deals with Salmonella Typhimurium TA1537. Briefly: bacterial mutagenicity, strain TA1537. On the set-up: key: +: Positive Response; -: Negative Response; w+: Weak Positive Response. Type of series: cell-based. The procedure:
as §1, §2

Series [6] has as its system Salmonella Typhimurium TA100. Briefly: bacterial mutagenicity, strain TA100. Type of series: cell-based. On the set-up: key: +: Positive Response; -: Negative Response; w+: Weak Positive Response. Here is the method: as §1, §2
Series [7] concerns S. mansoni. Briefly: antischistosomal activity in Cebus apella monkeys treated orally. Type of series: in vivo, S. mansoni (host: Cebus apella monkeys). Particulars: four equal doses over two days, oral; for Total Normal Worms at Necropsy: two values given, not assigned to the doses.

The structures appear in SMILES notation. Values joined by “and” are separate entries in the source; they are usually repeats but may differ in a detail not shown here. Equal entries are not always repeated.

As to `O=C(CCN1CCN(c2ccc(CO)c(Cl)c2)CC1)c1ccc(Cl)cc1` [Cpd. 28, 3-[4-[3-Chloro-4-(hydroxymethyl)phenyl]-1-piperazinyl]-1-(4-chlorophenyl)-1-propanone], the “Mutagenicity TA1538” value is “+” in series [1] (with metabolic activation) and “w+” in series [1] (without metabolic activation). The inhibition in vivo at 20 mg/kg in the series with S. mansoni [2] (mice) came out at 66%. Moreover, the inhibition in vivo at 40 mg/kg in the series with S. mansoni [2] (mice) came to 88%. Besides, the inhibition in vivo at 50 mg/kg in the series on S. mansoni [2] was determined as 98%. Besides, in the series with S. mansoni [2], the inhibition in vivo at 156 mg/kg came out at 99%. For the same molecule, the “bacterial mutagenicity” value with Salmonella Typhimurium (five strains) is given as “mutagenic, but much less so than hycanthone”. Further, the “Mutagenicity TA1535” value in series [3] is “-”. Further, the “Mutagenicity TA98” value in series [4] (with metabolic activation) and in series [4] (without metabolic activation) was “-” throughout. Moreover, the figures for the “Mutagenicity TA1537” value in series [5] (with metabolic activation) and in series [5] (without metabolic activation) were “-” and “w+”, respectively. Also, the “Mutagenicity TA100” value in series [6] (with metabolic activation) is on record as “+”.
Take `O=C(CCN1CCN(c2ccc(CO)c(Cl)c2)CC1)c1ccc(Cl)cc1` [drawing 32]: the “% Reduction Live Worm Burden at Necropsy” value was 93% and 87% in the series with S. mansoni [7] (100 mg/kg); 100% and 96% with S. mansoni [7] (200 mg/kg); 97% and 95% with S. mansoni [7] (400 mg/kg). The “Total Live Worms at Necropsy” value with S. mansoni [7] (100 mg/kg) is 15 and 27; in the series with S. mansoni [7] (400 mg/kg), 6 and 11. The “Total Normal Worms at Necropsy” value in the series on S. mansoni [7] is recorded as 0. Moreover, the “Fecal Egg Count” value with S. mansoni [7] (two values printed for six animals (400, 200, 100 mg/kg), not assigned) was determined as 0.
Take `O=C(CN1CCN(c2ccc(CO)c(Cl)c2)CC1)c1ccc(Cl)c(Cl)c1Cl` [Cpd. 8, 2-[4-[3-Chloro-4-(hydroxymethyl)phenyl]-1-piperazinyl]-1-(2,3,4-trichlorophenyl)ethanone]: the “Mutagenicity TA1538” value in series [1] (with metabolic activation) and in series [1] (without metabolic activation) was “-” throughout. Further, the inhibition in vivo at 40 mg/kg in the series with S. mansoni [2] (mice) worked out at 84%. Further, the inhibition in vivo at 50 mg/kg in the series on S. mansoni [2] was found to be 91%. For the same molecule, the inhibition in vivo at 156 mg/kg with S. mansoni [2] was found to be 96%. In the series on Salmonella Typhimurium (five strains), the “bacterial mutagenicity” value was “mutagenic, but much less so than hycanthone”. In series [3], the “Mutagenicity TA1535” value is listed as “-”. In addition, the “Mutagenicity TA98” value in series [4] (with metabolic activation) and in series [4] (without metabolic activation) was “-” in each case. Besides, the “Mutagenicity TA1537” value is listed as “w+” in series [5] (with metabolic activation) and “-” in series [5] (without metabolic activation). The “Mutagenicity TA100” value in series [6] (with metabolic activation) is given as “+”.
With `CCN(CC)CCNc1ccc(CO)c2sc3ccccc3c(=O)c12` [Hycanthone, reference compound], the “Mutagenicity TA1538” value in series [1] (with metabolic activation) and in series [1] (without metabolic activation) was “+” throughout. The “Mutagenicity TA1535” value in series [3] was “-”. Also, the “Mutagenicity TA98” value in series [4] (with metabolic activation) and in series [4] (without metabolic activation) was “+” in each case. Moreover, the “Mutagenicity TA1537” value in series [5] (with metabolic activation) and in series [5] (without metabolic activation) was “+” in each case. The “Mutagenicity TA100” value in series [6] (with metabolic activation) and in series [6] (without metabolic activation) was “+” in each case.
Regarding `O=C(CN1CCN(c2ccc(CO)c(Cl)c2)CC1)c1cc2ccccc2o1` [Cpd. 49, 2-[4-[3-Chloro-4-(hydroxymethyl)phenyl]-1-piperazinyl]-1-(2-benzofuranyl)-ethanone], the “Mutagenicity TA1538” value in series [1] (with metabolic activation) and in series [1] (without metabolic activation) was “-” in each case. The inhibition in vivo at 20 mg/kg in the series with S. mansoni [2] (mice) worked out at 33%. In addition, the inhibition in vivo at 125 mg/kg with S. mansoni [2] (125 mg/kg, mice) was 97%. The “bacterial mutagenicity, conclusion” value with Salmonella Typhimurium (Ames/Salmonella assay, overall conclusion) is reported as “nonmutagenic”. For the same molecule, the “bacterial mutagenicity” value is given as “nonmutagenic” with Salmonella Typhimurium (other four strains (not TA98)); “weakly mutagenic” in series [4] (initial test, TA98 with microsomal activation); “did not confirm this mutagenicity” in series [4] (second test, TA98, microsomal activation, additional concentrations 10-60 micrograms/ml). The “Mutagenicity TA1535” value in series [3] is listed as “-”. For the same molecule, the figures for the “Mutagenicity TA98” value in series [4] (with metabolic activation) and in series [4] (without metabolic activation) were “+” and “-”, respectively. Also, the “Mutagenicity TA1537” value in series [5] (with metabolic activation) and in series [5] (without metabolic activation) was “-” each time. For the same molecule, the “Mutagenicity TA100” value in series [6] (with metabolic activation) is given as “-”.
For `O=C(CN1CCN(c2ccc(CO)c(Cl)c2)CC1)c1ccc(Cl)c(Cl)c1Cl` [drawing 33], the “% Reduction Live Worm Burden at Necropsy” value is 85% and 83% with S. mansoni [7] (200 mg/kg); 99% and 98% with S. mansoni [7] (400 mg/kg). The “Fecal Egg Count” value in the series with S. mansoni [7] (200 mg/kg) and in the series on S. mansoni [7] (400 mg/kg) was 0 in each case. In addition, the “Total Normal Worms at Necropsy” value with S. mansoni [7] stood at 0.
